The values below come from ChEMBL document CHEMBL1201862, “PubChem BioAssay data set” (2004).

“And” between values parts separate entries of the source, which are not always exact repeats. Equal values may be shown once.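 A five-concentration, 48-hour dose response in 96-well plates underlies each endpoint, interpolated linearly between surrounding concentrations. GI50 = concentration required for 50% inhibition of growth.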 The source made the active and inactive calls. Rule as the data show it: active = GI50 up to about 1.1 µM and inactive = higher.

Some test systems named below: A498; UACC-257; OVCAR-8; EKVX; IGROV-1; DMS-114; CCRF-CEM; TK-10; M19-MEL; U-251; NCI-H460; HOP-62; ACHN; RPMI-8226; SF-295.
Holding throughout (experiment): NCI-60 cell line screen, 48 h

For `CC(=O)OC1COC(N2CCc3ccccc32)C(OC(C)=O)C1OC(C)=O` (stereo not given), the GI50 in the assay on A498 is > 100 µM (inactive); in the assay with UACC-257, > 100 µM (inactive); in the assay with OVCAR-8, > 100 µM (inactive); in the assay on EKVX, > 100 µM (inactive) and > 57.1 µM (inactive); with IGROV-1 it was > 100 µM (inactive); with DMS-114, > 91.6 µM (inactive). The GI50 in the assay with CCRF-CEM, in the assay with TK-10, with M19-MEL, in the assay on U-251, in the assay with NCI-H460 and with HOP-62 was > 100 µM (inactive) throughout. For the same compound, the GI50 in the assay on ACHN, with RPMI-8226 and in the assay with SF-295 was > 100 µM (inactive) throughout.
As to `CC(C)=CC(=O)N1CCN(C(=O)C=C(C)C)CC1`, the GI50 in the assay on A498, with UACC-257, with OVCAR-8, with EKVX, in the assay on IGROV-1 and in the assay on DMS-114 was > 100 µM (inactive) in each case. In addition, the GI50 in the assay with CCRF-CEM, in the assay on TK-10, in the assay on M19-MEL, with U-251, in the assay on NCI-H460 and in the assay on HOP-62 was > 100 µM (inactive) each time. The GI50 in the assay on ACHN, with RPMI-8226 and in the assay with SF-295 was > 100 µM (inactive) throughout.
Take `O=C(c1ccccc1)c1cccc(C(=O)c2ccccc2)c1`: the GI50 with A498 is > 100 µM (inactive); in the assay on UACC-257 it was > 100 µM (inactive); with OVCAR-8 it was > 100 µM (inactive); in the assay with EKVX, > 100 µM (inactive); in the assay with IGROV-1 it was > 100 µM (inactive); in the assay on DMS-114 it was 43.4 µM (inactive). The GI50 in the assay on CCRF-CEM is 63.8 µM (inactive); with TK-10 it was > 100 µM (inactive); in the assay on M19-MEL, > 100 µM (inactive); in the assay on U-251 it was > 100 µM (inactive); with NCI-H460, > 100 µM (inactive); in the assay with HOP-62 it was > 100 µM (inactive). Moreover, the GI50 with ACHN, in the assay on RPMI-8226 and in the assay with SF-295 was > 100 µM (inactive) throughout.
For the compound `Clc1cc2ns[s+]c2cc1Cl`, the GI50 is > 100 µM (inactive) with A498; > 86.3 µM (inactive) in the assay on UACC-257; > 56.5 µM (inactive) in the assay with OVCAR-8; 81.8 µM (inactive) with EKVX; 98.6 µM (inactive) with IGROV-1; 29.1 µM (inactive) in the assay on DMS-114. The GI50 in the assay with CCRF-CEM was 33.4 µM (inactive); in the assay with TK-10, > 44.9 µM (inactive); in the assay on M19-MEL, 61.4 µM (inactive); in the assay on U-251, > 100 µM (inactive); with NCI-H460, 47.8 µM (inactive); in the assay on HOP-62, 31.8 µM (inactive). Also, the GI50 in the assay on ACHN was 12.4 µM (inactive); in the assay on RPMI-8226 it was 31 µM (inactive); in the assay with SF-295 it was 47.1 µM (inactive).
For the compound `CC1=C(C(=O)O)N2C(=O)[C@@H](NC(=O)C(c3ccc(O)cc3)N3CSC(=S)N(C(C)C)C3)C2SC1` (stereo not given in full), the GI50 in the assay on A498, with UACC-257, with OVCAR-8, in the assay on EKVX, in the assay on IGROV-1 and in the assay on DMS-114 was > 100 µM (inactive) in each case. The GI50 with CCRF-CEM was 63.8 µM (inactive); in the assay on TK-10 it was > 100 µM (inactive); with M19-MEL it was > 100 µM (inactive); in the assay with U-251, > 100 µM (inactive); in the assay on NCI-H460, > 100 µM (inactive); in the assay with HOP-62, > 100 µM (inactive). In addition, the GI50 with ACHN, in the assay with RPMI-8226 and in the assay on SF-295 was > 100 µM (inactive) in each case.
On to `N#CC(C#N)=Cc1ccc(Oc2ccccc2)cc1`, for which the GI50 was > 100 µM (inactive) in the assay on A498; 25.6 µM (inactive) with UACC-257; 25.5 µM (inactive) with OVCAR-8; > 100 µM (inactive) in the assay with EKVX; 29.9 µM (inactive) in the assay on IGROV-1; 26.2 µM (inactive) in the assay on DMS-114. The GI50 was 23.8 µM (inactive) in the assay on CCRF-CEM; 55.5 µM (inactive) with TK-10; 32 µM (inactive) in the assay on M19-MEL; 23.4 µM (inactive) in the assay with U-251; 53.2 µM (inactive) in the assay with NCI-H460; 65.8 µM (inactive) with HOP-62. For the same compound, the GI50 with ACHN is 21.3 µM (inactive); with RPMI-8226 it was 18.1 µM (inactive); in the assay with SF-295 it was 22.2 µM (inactive).
Regarding `N#C/C(=C\c1cccc(O)c1)C(N)=O`, the GI50 with A498, in the assay with UACC-257, in the assay with OVCAR-8, in the assay with EKVX, in the assay on IGROV-1 and with DMS-114 was > 100 µM (inactive) throughout. Besides, the GI50 with CCRF-CEM, with TK-10, in the assay on M19-MEL, in the assay on U-251, with NCI-H460 and in the assay on HOP-62 was > 100 µM (inactive) each time. Besides, the GI50 in the assay on ACHN, with RPMI-8226 and in the assay on SF-295 was > 100 µM (inactive) in each case.
Turning to `O=[N+]([O-])c1ccc(C(Cl)C(Cl)c2ccc(C(Cl)C(Cl)c3ccc([N+](=O)[O-])cc3[N+](=O)[O-])cc2)c([N+](=O)[O-])c1` (stereo not given), the GI50 in the assay on A498 was 2.9 µM (inactive); with UACC-257, 1.72 µM (inactive); in the assay on OVCAR-8, 0.912 µM (active); with EKVX, 2.13 µM (inactive); in the assay with IGROV-1, 2.05 µM (inactive); with DMS-114, 1.42 µM (inactive). The GI50 in the assay with CCRF-CEM was 0.232 µM (active); with TK-10 it was 5.79 µM (inactive); with M19-MEL, 1.33 µM (inactive); in the assay on U-251 it was 1.26 µM (inactive); with NCI-H460 it was 0.957 µM (active); in the assay on HOP-62, 3.01 µM (inactive). In addition, the GI50 with ACHN is 2.05 µM (inactive); with RPMI-8226, 0.8 µM (active); in the assay on SF-295 it was 2.31 µM (inactive).
For `O=C1N=CN=C2C=CC(Cl)=C(I)C12` (stereo not given), the GI50 in the assay on A498 is 85.3 µM (inactive); in the assay on UACC-257 it was > 100 µM (inactive); in the assay on OVCAR-8, > 100 µM (inactive); with EKVX, 9.4 µM (inactive); in the assay with IGROV-1 it was 33.3 µM (inactive); in the assay on DMS-114, 84.7 µM (inactive). In addition, the GI50 in the assay with CCRF-CEM was > 100 µM (inactive); in the assay with TK-10, 80.9 µM (inactive); in the assay with M19-MEL it was > 100 µM (inactive); with U-251, 74.3 µM (inactive); in the assay on NCI-H460, 75.5 µM (inactive); with HOP-62, 67.5 µM (inactive). Further, the figures for the GI50 with ACHN, in the assay on RPMI-8226 and in the assay with SF-295 were 43.4 µM (inactive), 56.2 µM (inactive) and > 100 µM (inactive), respectively.
`CN(C)CC/C(=N\Nc1ccc(Cl)c(Cl)c1)c1ccccc1`: the GI50 in the assay with A498 is 2.81 µM (inactive); with UACC-257 it was 3 µM (inactive); in the assay on OVCAR-8, 1.87 µM (inactive); in the assay on EKVX, 1.82 µM (inactive); in the assay on IGROV-1, 2.18 µM (inactive); in the assay on DMS-114, 1.83 µM (inactive). Further, the GI50 with CCRF-CEM is 2.11 µM (inactive); in the assay with TK-10 it was 1.98 µM (inactive); with M19-MEL, 1.89 µM (inactive); in the assay on U-251 it was 1.78 µM (inactive); with NCI-H460, 1.85 µM (inactive); in the assay on HOP-62, 2.4 µM (inactive). The GI50 in the assay with ACHN was 1.69 µM (inactive); with RPMI-8226, 2.31 µM (inactive); with SF-295, 1.9 µM (inactive).
